The values below come from US7084128B2, “Method for reducing intraocular pressure” (Inspire Pharmaceuticals, Inc., priority 2002, dated 2006).

Test [1] concerns intraocular pressure (IOP). To be noted: New Zealand white rabbits; for time of maximal reduction in IOP: 0.25 mM topical single dose, IOP measured at 0.5, 1, 2 and 5 hours after application; for maximal reduction in IOP: 10 microliters of 0.25 mM in 0.9% saline, topical, unilateral, single dose, at time of maximal effect, n=4. As for the experimental part: The actions of 2′-(O)-, 3′-(O)-(benzyl)methylenedioxy-adenosine-5′-triphosphate (Compound 1) and 2′-(O)-, 3′-(O)-(benzyl)methylenedioxy-2″-(O)-,3″-(O)-benzyl methylenedioxy-P^1, P^4-di(adenosine 5′-)tetraphosphate (Compound 2) on intraocular pressure (IOP) were assessed in New Zealand white rabbits.
Intraocular pressure measurements: IOP was measured using a TONOPEN contact tonometer supplied by MENTOR (USA). Ten microliters of the agents were applied topically and unilaterally to the cornea, whereas the contralateral eye received the same volume of saline solution. The corneas were anesthetized to avoid any discomfort associated with the use of the tonometer. Two measurements were made before application of the agents.
Pharmacological studies: Compounds were prepared at a concentration of 0.25 mM in 0.9% saline and intraocular pressure was measured at 0.5, 1, 2, and 5 hours after the application. A single dose was tested in a single animal on a single day.

The test system of test [2] is intraocular pressure. To be noted: literature (Peral et al. 2000; Pintor et al. 2000); cited from earlier work.

Consider `Nc1ncnc2c1ncn2[C@@H]1O[C@H](COP(=O)(O)OP(=O)(O)OP(=O)(O)OP(=O)(O)OC[C@H]2O[C@@H](n3cnc4c(N)ncnc43)[C@@H]3OC(Cc4ccccc4)O[C@@H]32)[C@H]2OC(Cc3ccccc3)O[C@H]21` (stereo partly shown) [Compound 2, 2′-(O)-, 3′-(O)-(benzyl)methylenedioxy-2″-(O)-,3″-(O)-benzyl methylenedioxy-P^1, P^4-di(adenosine 5′-)tetraphosphate], for which, in test [1], the “time of maximal reduction in IOP” value turned out to be 1 h and the “maximal reduction in IOP” value is recorded as 22%.

As to `Nc1ncnc2c1ncn2[C@@H]1O[C@H](COP(=O)(O)CP(=O)(O)OP(=O)(O)O)[C@@H](O)[C@H]1O` [Alpha, Beta-Methylene adenosine triphosphate], in test [2], the “effect on intraocular pressure in rabbits” value (shortened to “effect”) is on record as “reduce intraocular pressure”.

In the case of `Nc1ncnc2c1ncn2[C@@H]1O[C@H](COP(=O)(O)OP(=O)(O)OP(=O)(O)OP(=O)(O)OC[C@H]2O[C@@H](n3cnc4c(N)ncnc43)[C@H](O)[C@@H]2O)[C@@H](O)[C@H]1O` [Diadenosine tetraphosphate], the “effect” value in test [2] was “lower intraocular pressure”.

With “2′-(O)-, 3′-(O)-(benzyl)methylenedioxy-adenosine-5′-triphosphate [Compound 1]”, in test [1], the “time of maximal reduction in IOP” value is 1 to 2 h and the “maximal reduction in IOP” value is listed as 21%.

Turning to `Nc1ncnc2c1ncn2[C@@H]1O[C@H](COP(=O)(O)OP(=O)(O)CP(=O)(O)O)[C@@H](O)[C@H]1O` [beta, gamma methylene adenosine triphosphate], in test [2], the “effect” value is “reduce intraocular pressure”.
